The values below come from ChEMBL document CHEMBL1156829 (Proc Natl Acad Sci U S A, 2008).

The subject of series [1] is Plasmodium falciparum. As to the kind of experiment: NOVARTIS: Inhibition of Plasmodium falciparum 3D7 (drug-susceptible) proliferation in erythrocyte-based infection assay. It is filed as functional, organism-based. As to conditions: Plasmodium falciparum, 3D7.
For series [2], the system named is Plasmodium falciparum. Nature of the series: NOVARTIS: Inhibition of Plasmodium falciparum W2 (drug-resistant) proliferation in erythrocyte-based infection assay. It is filed as functional, organism-based. As to conditions: Plasmodium falciparum, W2; read-out: EC50.
The nature of series [3]: NOVARTIS: Cytotoxicity against human hepatocellular carcinoma cell line (Huh7). It counts as toxicity, cell-based, Huh-7. The conditions noted are these: Huh7 cells (hepatocellular carcinoma cell line).

The term EC50 denotes the concentration needed to bring the measured effect to its halfway point. For orientation: CC50 means the concentration giving 50% cytotoxicity. Read a high CC50 as better tolerance by the cells. With `NC(=O)NN=C1c2cc(S(=O)(=O)NCc3ccco3)ccc2-c2ccc(S(=O)(=O)NCc3ccco3)cc21`, the EC50 is 1180 nM in series [1] and more than 1540 nM in series [2]. This compound gave a CC50 in series [3] of more than 10000 nM.
On the same counts, the results for `Cc1nc(-c2ccccn2)nc(NCCc2ccccc2)c1Cl` are 1250 nM, 1510 nM and more than 10000 nM.
With `CN(C)c1ccc(N2C(N)=NC(N)=NC23CCCC3)cc1`, the EC50 was 244 nM in series [1] and more than 1570 nM in series [2]. In addition, in series [3], the CC50 is more than 10000 nM.
For `O=C(Cc1ccccc1)Nc1ccc(C(=O)Nc2ccc(-c3nc4ccc(NC(=O)c5ccc(NC(=O)Cc6ccccc6)cc5)c(Cl)c4[nH]3)cc2)cc1` the same measures were 8000 nM, 6020 nM and 40000 nM.
Consider `COc1ccc(-c2cc(-c3ccccc3)nc(SCC(=O)N3c4ccccc4Sc4ccc(Cl)cc43)c2C#N)cc1`, for which the EC50 was more than 427 nM in series [1] and more than 1530 nM in series [2]. This compound also returned a CC50 in series [3] of more than 10000 nM.
For `O=C(c1cccs1)N1CCN(c2ccccn2)CC1` the same measures were 2020 nM, more than 1560 nM and more than 10000 nM.
Regarding `O=c1c2sccc2nc(SCc2cccc([N+](=O)[O-])c2)n1C1CC1`, the EC50 in series [1] is 1250 nM; in series [2] it was more than 1520 nM. The compound further showed a CC50 in series [3] of more than 10000 nM.
In the case of `O=C(Nc1ccc(-n2cccn2)cc1)C1CCN(C/C=C/c2ccccc2)CC1`, the results for the concentration giving a half-maximal response (EC50) in series [1] and in series [2] were 464 nM and 1540 nM, respectively. This compound gave a CC50 in series [3] of more than 10000 nM.
On the same counts, the results for `Cc1ccc(NC(=O)CN2CCN(c3ccccn3)CC2)cc1F` are 2080 nM, more than 1540 nM and more than 10000 nM.
On the same counts, the results for `Cc1ccccc1Nc1sc(C(=O)c2ccc([N+](=O)[O-])cc2)c(N)c1C(=O)Nc1ccccc1` are more than 1200 nM, more than 1540 nM and more than 10000 nM.
For `O=C(CN(CCN1CCOCC1)S(=O)(=O)c1ccccn1)N1CCN(C(c2ccccc2)c2ccccc2)CC1` the same measures were more than 12500 nM, 4440 nM and more than 28800 nM.
For `COc1ccc2nc(C)cc(N(c3ccc(Br)cc3)S(=O)(=O)c3ccc([N+](=O)[O-])cc3)c2c1`, the EC50 is 647 nM in series [1] and 1050 nM in series [2]. Further, the midpoint of cytotoxicity in series [3], the CC50, lay at 6830 nM.
For `C=CCNC(=O)c1ccc2c(c1)N=C(CC(C)c1ccccc1)N(CC1CCCCC1)C2` (centres undefined) the same measures were more than 1250 nM, 1530 nM and more than 10000 nM.
For `COc1ccc(C2=C(c3ccc(OC)cc3)C3C(=O)C2C2C(=O)N(c4cccc5ccccc45)C(=O)C32)cc1` (centres undefined) the same measures were more than 1090 nM, more than 1510 nM and more than 10000 nM.
For `CCCCCCCCCCCCOCCCNC(=O)c1cccc(N)c1` the same measures were 1570 nM, more than 1560 nM and more than 10000 nM.
Regarding `COc1ccc(C2C(C(=O)OC3CCCCC3)=C(C)Nc3nnnn32)cc1` (centres undefined), the results for the EC50 in series [1] and in series [2] were more than 10000 nM and more than 11200 nM, respectively. In series [3], this compound showed a CC50 of more than 74100 nM.
For `CC(C)CNC(=O)c1cnc(NCCCN2CCCCC2C)nc1NCCc1ccccc1` (centres undefined) the same measures were 374 nM, 1570 nM and more than 10000 nM.
On to `Cc1ccc2nc3c(c(NCCCN(C)C)c2c1)CCC3`, for which the half-maximal effective concentration (EC50) is 935 nM in series [1] and 1560 nM in series [2]. The compound further came in with a CC50 in series [3] of more than 10000 nM.
On the same counts, the results for `CC1CCCCN1CCCNc1ncc(C(=O)NCCc2ccccc2)c(NCC2CCCO2)n1` (centres undefined) are 914 nM, more than 1560 nM and more than 10000 nM.
For `CN1[C@@H](C(=O)Nc2ccc3c(c2)OCO3)C[C@@H](c2ccc(F)cc2)NS1(=O)=O`, the EC50 was 1960 nM in series [1] and more than 1570 nM in series [2]. The compound also showed a 50% cytotoxic concentration (CC50) in series [3] of more than 10000 nM.
Take `CCOC(=O)NN=C1C=C2C=CC3C(CC[C@@]4(C)C3CC3CCCCC34C(C)=O)[C@@]2(C)CC1` (some centres undefined): the EC50 in series [1] is more than 902 nM; in series [2], more than 1560 nM. The CC50 in series [3] is more than 10000 nM.
On the same counts, the results for `NCCCNc1ncc(C(=O)NCc2ccccc2)c(NCC2CCCCC2)n1` are 91.2 nM, 799 nM and 5140 nM.
As to `O=[N+]([O-])c1cccc2c(S(=O)(=O)NCCCN(CCO)CCO)cccc12`, the figures for the EC50 in series [1] and in series [2] were more than 1180 nM and more than 1550 nM, respectively. In series [3], the CC50 is more than 10000 nM.
On the same counts, the results for `O=C(Nc1ccc(N2CCCCC2)cc1)N1CCc2nc[nH]c2C1` are more than 1250 nM, 1010 nM and more than 6670 nM.
On the same counts, the results for `N#CCSc1nc2ccccc2c2nc(CCc3c[nH]c4ccccc34)nn12` are 3870 nM, 3850 nM and 25400 nM.
On the same counts, the results for `CCCN1CCC(N2C[C@@H](NCc3cc(C)ccc3C)C[C@H]2C(=O)NCCc2ccc3c(c2)OCO3)CC1` are 478 nM, 661 nM and 4200 nM.
As to `CCC(c1nc2ccccc2c(=O)n1-c1ccc(F)cc1)N(CCc1ccccc1)C(=O)CCc1ccccc1` (centres undefined), the EC50 in series [1] stood at 1520 nM; in series [2], 1540 nM. The compound further gave a CC50 in series [3] of more than 10000 nM.
On to `C=CCSC1=NC2(CC(c3ccccc3)c3cc(Cl)c(O)cc3O2)CC(C)(C)N1` (centres undefined), for which the EC50 in series [1] was more than 1190 nM; in series [2], 1520 nM. The compound also returned a CC50 in series [3] of more than 10000 nM.
For `COc1c([N+](=O)[O-])cc2c(c1Br)OC1(C=C2)N(C)c2ccccc2C1(C)C` (centres undefined) the same measures were 1740 nM, more than 1570 nM and more than 10000 nM.
For the compound `CC(=O)Nc1cc([N+](=O)[O-])ccc1N1CCOCC1`, the EC50 is more than 1550 nM in series [1] and 1500 nM in series [2]. Also, the CC50 in series [3] was more than 10000 nM.
On the same counts, the results for `COC(=O)c1ccc(NC(=O)CSc2nc3cc4c(cc3cc2C#N)OCCO4)cc1` are 1610 nM, 1540 nM and more than 10000 nM.
`Cn1c(=O)c2c(nc3n(CCCO)c(C45CC6CC(CC(C6)C4)C5)cn23)n(C)c1=O`: the EC50 was more than 1250 nM in series [1] and 1540 nM in series [2]. This compound came in with a CC50 in series [3] of more than 10000 nM.
In the case of `O=C1C=C(Nc2ccc(O)cc2)c2ccccc2C1=O`, the EC50 in series [1] stood at 730 nM; in series [2], 785 nM. The CC50 in series [3] came to 5120 nM.
In the case of `O=C1Nc2ccc(S(=O)(=O)Nc3ccc(NS(=O)(=O)c4ccc5c6c(cccc46)C(=O)N5)cc3)c3cccc1c23`, the results for the EC50 in series [1] and in series [2] were more than 1180 nM and more than 1250 nM, respectively. Also, in series [3], the CC50 is more than 8120 nM.
`COc1cc2c(O[C@@H]3O[C@H](CO)[C@@H](O)[C@H](O)[C@H]3O)c3c(c(-c4ccc5c(c4)OCO5)c2cc1OC)C(=O)OC3`: the figures for the EC50 in series [1] and in series [2] were 74.3 nM and 120 nM, respectively. In series [3], this compound showed a CC50 of 784 nM.
As for `CCN1CCN(c2cc(C)c3cc(NC(=O)/C=C/c4sccc4C)ccc3n2)CC1`, the EC50 was 1590 nM in series [1] and more than 1550 nM in series [2]. In series [3], this compound returned a CC50 of more than 10000 nM.
Regarding `CCOC(=O)CN(N=O)C1=C(N2CC2)C(=O)c2ccccc2C1=O`, the EC50 in series [1] was found to be 206 nM; in series [2] it was 3850 nM. For the same compound, the CC50 in series [3] was 25400 nM.
On the same counts, the results for `Fc1ccc(Nc2nc(OC(C(F)(F)F)C(F)(F)F)nc(OC(C(F)(F)F)C(F)(F)F)n2)cc1` are more than 1340 nM, 1570 nM and more than 10000 nM.
